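Tested at 5 concentrations; 48 h exposure; 96-well plates; endpoints linearly interpolated, else capped at highest concentration. Here, GI50 denotes the concentration required for 50% inhibition of growth. TGI marks complete inhibition of growth.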
Assays:
Test in all cases: NCI tumour cell line growth inhibition, 48 h
[1] = test system: COLO 205 colon
[2] = test system: OVCAR-5 ovarian
[3] = test system: RXF 393 renal
[4] = test system: SF-539 CNS
[5] = test system: SK-MEL-28 melanoma
[6] = test system: SK-MEL-5 melanoma
[7] = test system: UACC-257 melanoma
[8] = test system: HS 578T breast
[9] = test system: NCI/ADR-RES ovarian
[10] = test system: MDA-MB-435

SMILES: COc1ccc(C=O)c(NC(=O)C(C)C)c1
- TGI [1]: 34.1 µM
- TGI [2]: > 100 µM
- TGI [3]: 64.5 µM
- TGI [4]: > 100 µM
- TGI [5]: > 100 µM
- TGI [6]: > 10 µM
- TGI [7]: > 100 µM

SMILES: Cc1c(C2=C(c3cn(C)c4ccccc34)C(=O)NC2=O)c2ccccc2n1C
- GI50 [1]: 1.51 µM
- TGI [1]: > 25 µM
- GI50 [8]: 0.943 µM
- TGI [8]: > 25 µM
- GI50 [9]: 3.65 µM
- TGI [9]: > 25 µM
- GI50 [2]: > 25 µM
- TGI [2]: > 25 µM
- GI50 [3]: 1.38 µM
- TGI [3]: 19.6 µM
- GI50 [4]: 0.921 µM
- TGI [4]: > 6.77 µM
- GI50 [5]: > 22.3 µM
- TGI [5]: > 25 µM
- GI50 [6]: 2.29 µM
- TGI [6]: > 25 µM
- GI50 [7]: > 25 µM
- TGI [7]: > 25 µM

SMILES: CCO/C=C1\N=C(c2ccccc2Br)OC1=O
- TGI [1]: > 100 µM
- TGI [2]: > 100 µM
- TGI [3]: > 100 µM
- TGI [4]: > 100 µM
- TGI [5]: > 100 µM
- TGI [7]: > 100 µM

SMILES: Cc1nc2ccccc2c(/C=C/c2ccc(Br)cc2)c1C(=O)/C=C/c1ccccc1
- GI50 [1]: 1.51 µM
- TGI [1]: 3.47 µM
- GI50 [10]: 1.94 µM
- TGI [10]: 4.69 µM
- GI50 [9]: 2.13 µM
- TGI [9]: 5.31 µM
- GI50 [2]: 1.84 µM
- TGI [2]: 3.37 µM
- GI50 [3]: 1.64 µM
- TGI [3]: 3.07 µM
- GI50 [4]: 1.76 µM
- TGI [4]: 3.2 µM
- GI50 [5]: 1.89 µM
- TGI [5]: 3.4 µM
- GI50 [6]: 1.72 µM
- TGI [6]: 3.11 µM
- GI50 [7]: 1.68 µM
- TGI [7]: 3.22 µM

SMILES: CC(C)c1c2[nH]c3ccccc3c2c(C(C)C)c2[nH]c3ccccc3c12
- TGI [1]: > 100 µM
- TGI [2]: > 100 µM
- TGI [3]: > 100 µM
- TGI [4]: > 100 µM
- TGI [5]: > 100 µM
- TGI [6]: > 100 µM
- TGI [7]: > 100 µM

SMILES: COc1ccc(C(Cl)=C(c2ccc(OCCN(C)C)cc2)c2ccc(OCCN(C)C)cc2)cc1
- TGI [1]: 2.94 µM
- TGI [2]: 3.3 µM
- TGI [3]: 2.65 µM
- TGI [4]: 2.93 µM
- TGI [5]: 3.11 µM
- TGI [6]: 3.52 µM

SMILES: O=C(Oc1cccnc1)c1ccsc1Nc1ccnc(C(F)(F)F)c1
- GI50 [1]: 4.89 µM
- TGI [1]: 24.6 µM
- GI50 [10]: 2.88 µM
- TGI [10]: 11.8 µM
- GI50 [9]: 4.62 µM
- TGI [9]: > 100 µM
- GI50 [2]: 4.67 µM
- TGI [2]: > 100 µM
- GI50 [3]: 6.26 µM
- TGI [3]: 34.8 µM
- GI50 [5]: 6.28 µM
- TGI [5]: 39.9 µM
- GI50 [6]: 5.26 µM
- TGI [6]: 30.1 µM
- GI50 [7]: 10.5 µM
- TGI [7]: 23.4 µM

SMILES: CCOC(=O)C(=O)Nc1cc(Cl)ccc1Cl
- TGI [1]: > 100 µM
- TGI [2]: > 100 µM
- TGI [4]: > 100 µM
- TGI [5]: > 100 µM
- TGI [6]: > 100 µM
- TGI [7]: > 100 µM

SMILES: COC(CN1C=C(Sc2ccccc2)CC1)OC
- TGI [1]: 47.4 µM
- TGI [2]: > 100 µM
- TGI [3]: 66.6 µM
- TGI [4]: 68.3 µM
- TGI [5]: > 100 µM
- TGI [6]: 34.7 µM
- TGI [7]: 98.1 µM

SMILES: CN1CCN(CC(O)COc2c(Br)c(Br)c(Br)c3c2OC(C)(C)C3)CC1 (stereo not given)
- GI50 [8]: 10.4 µM
- TGI [8]: 42.7 µM
- GI50 [9]: 15.9 µM
- TGI [9]: 49 µM
- GI50 [2]: 17.7 µM
- TGI [2]: 43.7 µM
- GI50 [3]: 3.3 µM
- TGI [3]: 6.53 µM
- GI50 [4]: 3.21 µM
- TGI [4]: 13.5 µM
- GI50 [5]: 1.85 µM
- TGI [5]: 3.48 µM
- GI50 [6]: 1.83 µM
- TGI [6]: 3.27 µM
